The text below walks through data of ChEMBL document CHEMBL4480411, “Discovery of Second Generation RORγ Inhibitors Composed of an Azole Scaffold” (J Med Chem, 2019).

The nature of series [1]: Lipophilicity, log D of the compound. The format is physicochemical. To be noted: octanol/water.
Series [2] deals with T1, Peroxisome proliferator-activated receptor gamma (Homo sapiens, UniProt P37231).
T1 sequence (P37231 whole entry): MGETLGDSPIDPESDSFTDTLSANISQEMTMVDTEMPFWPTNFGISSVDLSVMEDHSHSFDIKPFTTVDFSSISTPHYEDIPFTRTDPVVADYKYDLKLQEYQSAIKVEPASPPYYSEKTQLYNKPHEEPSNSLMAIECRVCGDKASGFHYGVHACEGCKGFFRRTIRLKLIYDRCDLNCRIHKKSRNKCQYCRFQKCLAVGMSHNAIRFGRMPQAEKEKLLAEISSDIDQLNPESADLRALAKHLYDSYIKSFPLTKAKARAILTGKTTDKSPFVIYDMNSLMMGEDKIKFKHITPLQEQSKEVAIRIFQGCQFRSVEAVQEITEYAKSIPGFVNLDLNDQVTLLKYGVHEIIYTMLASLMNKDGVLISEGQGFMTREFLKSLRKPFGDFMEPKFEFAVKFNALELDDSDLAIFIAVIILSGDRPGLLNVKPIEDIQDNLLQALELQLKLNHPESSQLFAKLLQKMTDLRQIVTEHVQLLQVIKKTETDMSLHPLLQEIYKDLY
The series can be described thus: Inhibition of GAL4-fused human PPARgamma transcriptional activity expressed in CHOK1 cells after 2 days by luciferase reporter gene assay. The format is cell-based. For orientation: A reporter such as luciferase makes a cellular process visible.

pEC50: −log10 of the molar value.

For orientation: logD means lipophilicity at a set pH, counting ionised and neutral species. Read a high logD as higher lipophilicity. The term pEC50 denotes −log10 of the EC50, conventionally taken in molar units. A high value points to a small EC50.

With `CC(C)(C)Cc1cc(-c2onc([C@@H](CCC(=O)[O-])CC(=O)Nc3ccc(Cl)cc3Cl)c2C2CC2)no1.[Na+]`, the logD in series [1] amounted to 4.2. This molecule gave a pEC50 in series [2] below 4.70.
